Data set [1] deals with Puccinia recondita f. sp. tritici. In words: Fungicidal activity against Puccinia recondita f. sp. tritici / wheat / leaf disc curative (brown rust). The data set is classed as in vivo. Particulars: foliar, 200 ppm in the applied formulation, wheat leaf segments cv. Kanzler, applied 1 day after inoculation, assessed 6 to 8 days after application, compared to untreated, read-out: disease control. As for the experimental part:
Leaf disks or leaf segments of various plant species are cut from plants grown in a greenhouse. The cut leaf disks or segments are placed in multiwell plates (24-well format) onto water agar. The leaf disks are sprayed with a test solution before (preventative) or after (curative) inoculation. Compounds to be tested are prepared as DMSO solutions (max. 10 mg/mL) which are diluted to the appropriate concentration with 0.025% Tween20 just before spraying. The inoculated leaf disks or segments are incubated under defined conditions (temperature, relative humidity, light, etc.) according to the respective test system. A single evaluation of disease level is carried out 3 to 14 days after inoculation, depending on the pathosystem. Percent disease control relative to the untreated check leaf disks or segments is then calculated. Wheat leaf segments cv. Kanzler are placed on agar in multiwell plates (24-well format). The leaf segments are then inoculated with a spore suspension of the fungus. Plates were stored in darkness at 19° C. and 75% relative humidity. The formulated test compound diluted in water was applied 1 day after inoculation. The leaf segments were incubated at 19° C. and 75% relative humidity under a light regime of 12 hours light/12 hours darkness in a climate cabinet and the activity of a compound was assessed as percent disease control compared to untreated when an appropriate level of disease damage appears in untreated check leaf segments (6 to 8 days after application). The following compounds at 200 ppm in the applied formulation give at least 80% disease control in this test when compared to untreated control leaf disks under the same conditions, which show extensive disease development.

The next data set concerns Phakopsora pachyrhizi. In words: Fungicidal activity against Phakopsora pachyrhizi / soybean / leaf disc preventative (Asian soybean rust). The data set is classed as in vivo. Particulars: foliar, 200 ppm in the applied formulation, soybean leaf disks, inoculated one day after application, assessed 12 to 14 days after application, compared to untreated, read-out: disease control. As for the experimental part: Leaf disks or leaf segments of various plant species are cut from plants grown in a greenhouse. The cut leaf disks or segments are placed in multiwell plates (24-well format) onto water agar. The leaf disks are sprayed with a test solution before (preventative) or after (curative) inoculation. Compounds to be tested are prepared as DMSO solutions (max. 10 mg/mL) which are diluted to the appropriate concentration with 0.025% Tween20 just before spraying. The inoculated leaf disks or segments are incubated under defined conditions (temperature, relative humidity, light, etc.) according to the respective test system. A single evaluation of disease level is carried out 3 to 14 days after inoculation, depending on the pathosystem. Percent disease control relative to the untreated check leaf disks or segments is then calculated. Soybean leaf disks are placed on water agar in multiwell plates (24-well format) and sprayed with the formulated test compound diluted in water. One day after application leaf discs are inoculated by spraying a spore suspension on the lower leaf surface. After an incubation period in a climate cabinet of 24-36 hours in darkness at 20° C. and 75% rh leaf disc are kept at 20° C. with 12 hours light/day and 75% rh. The activity of a compound is assessed as percent disease control compared to untreated when an appropriate level of disease damage appears in untreated check leaf disks (12 to 14 days after application). The following compounds at 200 ppm in the applied formulation give at least 80% disease control in this test when compared to untreated control leaf disks under the same conditions, which show extensive disease development.

The subject of data set [2] is Glomerella lagenarium (Colletotrichum lagenarium). As to the kind of experiment: Fungicidal activity against Glomerella lagenarium (Colletotrichum lagenarium) liquid culture / cucumber / preventative (anthracnose). The data set is classed as cell-based. Particulars: Colletotrichum orbiculare; 20 ppm in the applied formulation; liquid culture in PDB, 24° C.; 3 to 4 days after application; compared to untreated control; read-out: disease control (inhibition of growth measured photometrically). As for the experimental part: Mycelia fragments or conidia suspensions of a fungus prepared either freshly from liquid cultures of the fungus or from cryogenic storage, are directly mixed into nutrient broth. DMSO solutions of the test compound (max. 10 mg/mL) are diluted with 0.025% Tween20 by a factor of 50 and 10 μL of this solution is pipetted into a microtiter plate (96-well format). The nutrient broth containing the fungal spores/mycelia fragments is then added to give an end concentration of the tested compound. The test plates are incubated in the dark at 24° C. and 96% relative humidity (rh). The inhibition of fungal growth is determined photometrically after 2 to 7 days, depending on the pathosystem, and percent antifungal activity relative to the untreated check is calculated. Conidia of the fungus from cryogenic storage are directly mixed into nutrient broth (PDB—potato dextrose broth). After placing a (DMSO) solution of test compound into a microtiter plate (96-well format), the nutrient broth containing the fungal spores is added. The test plates are incubated at 24° C. and the inhibition of growth is measured photometrically 3 to 4 days after application. The following compounds at 20 ppm in the applied formulation give at least 80% disease control in this test when compared to untreated control under the same conditions, which show extensive disease development.

Data set [3] has as its system Puccinia recondita f. sp. tritici. As to the kind of experiment: Fungicidal activity against Puccinia recondita f. sp. tritici / wheat / leaf disc preventative (brown rust). Particulars: foliar, 200 ppm in the applied formulation, wheat leaf segments cv. Kanzler, inoculated 1 day after application, assessed 7 to 9 days after application, compared to untreated, read-out: disease control. The data set is classed as in vivo. As for the experimental part:
Leaf disks or leaf segments of various plant species are cut from plants grown in a greenhouse. The cut leaf disks or segments are placed in multiwell plates (24-well format) onto water agar. The leaf disks are sprayed with a test solution before (preventative) or after (curative) inoculation. Compounds to be tested are prepared as DMSO solutions (max. 10 mg/mL) which are diluted to the appropriate concentration with 0.025% Tween20 just before spraying. The inoculated leaf disks or segments are incubated under defined conditions (temperature, relative humidity, light, etc.) according to the respective test system. A single evaluation of disease level is carried out 3 to 14 days after inoculation, depending on the pathosystem. Percent disease control relative to the untreated check leaf disks or segments is then calculated. Wheat leaf segments cv. Kanzler were placed on agar in multiwell plates (24-well format) and sprayed with the formulated test compound diluted in water. The leaf disks were inoculated with a spore suspension of the fungus 1 day after application. The inoculated leaf segments were incubated at 19° C. and 75% relative humidity (rh) under a light regime of 12 hours light/12 hours darkness in a climate cabinet and the activity of a compound was assessed as percent disease control compared to untreated when an appropriate level of disease damage appears in untreated check leaf segments (7 to 9 days after application). The following compounds at 200 ppm in the applied formulation give at least 80% disease control in this test when compared to untreated control leaf disks under the same conditions, which show extensive disease development.

As to `CC(c1ccc(-c2noc(C(F)(F)F)n2)s1)n1cc(C(=S)N2CCC2)cn1` (stereo not drawn) [Compound 1.10, azetidin-1-yl-[1-[1-[5-[5-(trifluoromethyl)-1,2,4-oxadiazol-3-yl]-2-thienyl]ethyl]pyrazol-4-yl]methanethione], the melting point lay within 75 to 83 °C. For the same molecule, the pest or weed control at 200 ppm in data set [1] was not below 80%. For the same molecule, in the data set on Phakopsora pachyrhizi, the pest or weed control at 200 ppm is not below 80%. Further, the inhibition at 20 ppm in data set [2] is not below 80%. In data set [3], the pest or weed control at 200 ppm is not below 80%.
In turn, `CNC(=S)c1ccnn1Cc1ccc(-c2noc(C(F)(F)F)n2)cc1` [Compound 1.1, N-methyl-2-[[4-[5-(trifluoromethyl)-1,2,4-oxadiazol-3-yl]phenyl]methyl] pyrazole-3-carbothioamide] gave a melting point of 159 to 164 °C. Further, the pest or weed control at 200 ppm in data set [1] was not below 80%. Further, the pest or weed control at 200 ppm in the data set on Phakopsora pachyrhizi is not below 80%. For the same molecule, in data set [2], the inhibition at 20 ppm was not below 80%. The pest or weed control at 200 ppm in data set [3] was not below 80%.
`CNC(=S)c1ccn(Cc2ccc(-c3noc(C(F)(F)F)n3)s2)n1` [Compound 1.6, N-methyl-1-[[5-[5-(trifluoromethyl)-1,2,4-oxadiazol-3-yl]-2-thienyl]methyl]pyrazole-3-carbothioamide] displayed a melting point of 118 to 122 °C. In addition, the pest or weed control at 200 ppm in data set [1] was not below 80%. Moreover, the pest or weed control at 200 ppm in the data set on Phakopsora pachyrhizi was not below 80%. Moreover, in data set [2], the inhibition at 20 ppm was not below 80%. Also, in data set [3], the pest or weed control at 200 ppm is not below 80%.
Turning to `COCC(=S)NCc1cnn(Cc2ccc(-c3noc(C(F)(F)F)n3)s2)c1` [Compound 1.14, 2-methoxy-N-[[1-[[5-[5-(trifluoromethyl)-1,2,4-oxadiazol-3-yl]-2-thienyl]methyl]pyrazol-4-yl]methyl]thioacetamide], the melting point lay within 135.5 to 140.3 °C. Further, in data set [1], the pest or weed control at 200 ppm is not below 80%. Further, the pest or weed control at 200 ppm with Phakopsora pachyrhizi was not below 80%. Moreover, the inhibition at 20 ppm in data set [2] is not below 80%. In data set [3], the pest or weed control at 200 ppm was not below 80%.
Molecule `CNC(=S)c1ncnn1Cc1ccc(-c2noc(C(F)(F)F)n2)s1` [Compound 1.5, N-methyl-2-[[5-[5-(trifluoromethyl)-1,2,4-oxadiazol-3-yl]-2-thienyl]methyl]-1,2,4-triazole-3-carbothioamide] displayed a melting point of 86 to 95 °C. Further, the pest or weed control at 200 ppm in data set [1] was not below 80%. The pest or weed control at 200 ppm in the data set with Phakopsora pachyrhizi was not below 80%. Further, the inhibition at 20 ppm in data set [2] was not below 80%. Also, the pest or weed control at 200 ppm in data set [3] was not below 80%.
Turning to `NC(=S)c1nccn1Cc1ccc(-c2noc(C(F)(F)F)n2)s1` [Compound 1.12, 1-[[5-[5-(trifluoromethyl)-1,2,4-oxadiazol-3-yl]-2-thienyl]methyl] imidazole-2-carbothioamide], the melting point was in the range of 170 to 172 °C. In addition, the pest or weed control at 200 ppm in data set [1] was not below 80%. The pest or weed control at 200 ppm in the data set with Phakopsora pachyrhizi is not below 80%. Moreover, the inhibition at 20 ppm in data set [2] is not below 80%. Moreover, the pest or weed control at 200 ppm in data set [3] is not below 80%.

Broadly, the melting point is the temperature of the solid-liquid transition. The term inhibition denotes the drop in the measured response relative to a control, in per cent.
